Earlier results as cited in PubChem BioAssay AID1259409 (Chemical Carcinogenesis Research Information System (CCRIS), 2018).

System: rodent chemically induced tumor inhibition, incidence and multiplicity
Assay: CCRIS tumor inhibitor studies

SMILES	tumour outcome (control, treated, inhibition, significance) (Carcinogen: 7,12-DIMETHYLBENZ[A]ANTHRACENE, 57-97-6, Dose [Inhibitor]: 140 NMOL IN 0.2 ML ACETONE 2/WK (D 1 AND D 4 OF EACH WK) 1 HR BEFORE EACH PROMOTER APPLICATION STARTING 14 D AFTER CARCI, Route [Inhibitor]: DERMAL, Species: MOUSE, Strain/Sex: CD-1/FEMALE, Target Tissue: Type of Lesion: SKIN: PAPILLOMA, Dose [Carcinogen]: 0.2 UMOL IN 0.2 ML ACETONE ONCE, Promoter: 12-O-TETRADECANOYLPHORBOL-13-ACETATE, 16561-29-8)	tumour outcome (control, treated, inhibition, significance) (Carcinogen: TRANS-5-AMINO-3-[2-(5-NITRO-2-FURYL)VINYL]-1,2,4-OXADIAZOLE;SQL8506, 28754-68-9, Carcinogen: TRANS-5-AMINO-3-[2-(5-NITRO-2-FURYL)VINYL]-1,2,4-OXADIAZOLE;SQL8506, 28754-68-9, Dose [Inhibitor]: 75 MG/KG 18 HR BEFORE THE 1ST DOSE OF EACH CARCINOGEN TREATMENT (STUDY DURATION: LIFETIME), Route [Inhibitor]: ORAL, Species: MOUSE, Strain/Sex: CD-1/FEMALE, Target Tissue: Type of Lesion: HEMATOPOIETIC SYSTEM: MYELOID LEUKEMIA, Dose [Carcinogen]: 1 G/KG 2/D FOR 5 D EVERY 4 WK FOR 3 COURSES OF TREATMENT, Promoter: NONE USED)	tumour outcome (control, treated, inhibition, significance) (Carcinogen: TRANS-5-AMINO-3-[2-(5-NITRO-2-FURYL)VINYL]-1,2,4-OXADIAZOLE;SQL8506, 28754-68-9, Carcinogen: TRANS-5-AMINO-3-[2-(5-NITRO-2-FURYL)VINYL]-1,2,4-OXADIAZOLE;SQL8506, 28754-68-9, Dose [Inhibitor]: 75 MG/KG 18 HR BEFORE THE 1ST DOSE OF EACH CARCINOGEN TREATMENT (STUDY DURATION: LIFETIME), Route [Inhibitor]: ORAL, Species: MOUSE, Strain/Sex: CD-1/FEMALE, Target Tissue: Type of Lesion: LYMPHOID TISSUE: NONTHYMIC LYMPHOMA, Dose [Carcinogen]: 1 G/KG 2/D FOR 5 D EVERY 4 WK FOR 3 COURSES OF TREATMENT, Promoter: NONE USED)	tumour outcome (control, treated, inhibition, significance) (Carcinogen: TRANS-5-AMINO-3-[2-(5-NITRO-2-FURYL)VINYL]-1,2,4-OXADIAZOLE;SQL8506, 28754-68-9, Carcinogen: TRANS-5-AMINO-3-[2-(5-NITRO-2-FURYL)VINYL]-1,2,4-OXADIAZOLE;SQL8506, 28754-68-9, Dose [Inhibitor]: 75 MG/KG 18 HR BEFORE THE 1ST DOSE OF EACH CARCINOGEN TREATMENT (STUDY DURATION: LIFETIME), Route [Inhibitor]: ORAL, Species: MOUSE, Strain/Sex: CD-1/FEMALE, Target Tissue: Type of Lesion: LYMPHOID TISSUE: THYMIC LYMPHOMA, Dose [Carcinogen]: 1 G/KG 2/D FOR 5 D EVERY 4 WK FOR 3 COURSES OF TREATMENT, Promoter: NONE USED)	tumour outcome (control, treated, inhibition, significance) (Carcinogen: TRANS-5-AMINO-3-[2-(5-NITRO-2-FURYL)VINYL]-1,2,4-OXADIAZOLE;SQL8506, 28754-68-9, Carcinogen: TRANS-5-AMINO-3-[2-(5-NITRO-2-FURYL)VINYL]-1,2,4-OXADIAZOLE;SQL8506, 28754-68-9, Dose [Inhibitor]: 75 MG/KG 18 HR BEFORE THE 1ST DOSE OF EACH CARCINOGEN TREATMENT (STUDY DURATION: LIFETIME), Route [Inhibitor]: ORAL, Species: MOUSE, Strain/Sex: CD-1/FEMALE, Target Tissue: Type of Lesion: STOMACH: SQUAMOUS CARCINOMA, Dose [Carcinogen]: 1 G/KG 2/D FOR 5 D EVERY 4 WK FOR 3 COURSES OF TREATMENT, Promoter: NONE USED)	tumour outcome (control, treated, inhibition, significance) (Carcinogen: N-BUTYL-N-(4-HYDROXYBUTYL)NITROSAMINE, 3817-11-6, Dose [Inhibitor]: 1.5 MMOL/KG DIET DAILY FOR 108 D STARTING ONE WK AFTER THE FINAL CARCINOGEN DOSE (STUDY DURATION: 171 D), Route [Inhibitor]: ORAL, Species: MOUSE, Strain/Sex: BDF/MALE, Target Tissue: Type of Lesion: URINARY BLADDER: TRANSITIONAL CELL CARCINOMA, Dose [Carcinogen]: 5 MG, 2/WK FOR 9 WK, Promoter: NONE USED)	tumour outcome (control, treated, inhibition, significance) (Carcinogen: N-BUTYL-N-(4-HYDROXYBUTYL)NITROSAMINE, 3817-11-6, Dose [Inhibitor]: 1.5 MMOL/KG/D IN DIET FOR 108 D STARTING 1 WK POST CARCINOGEN TREATMENT (STUDY DURATION: 171 D), Route [Inhibitor]: ORAL, Species: MOUSE, Strain/Sex: BDF/MALE, Target Tissue: Type of Lesion: URINARY BLADDER: TRANSITIONAL CELL CARCINOMA, Dose [Carcinogen]: 5 MG 2/WK FOR 9 WK, Promoter: NONE USED)	tumour outcome (control, treated, inhibition, significance) (Carcinogen: N-NITROSOBIS(2-OXOPROPYL)AMINE, 60599-38-4, Dose [Inhibitor]: 0.25 MMOL/KG OF DIET FOR 364 D STARTING 2 WK AFTER LAST CARCINOGEN DOSE (STUDY DURATION: 55 WK), Route [Inhibitor]: ORAL, Species: HAMSTER, Strain/Sex: SYRIAN/FEMALE, Target Tissue: Type of Lesion: LIVER: CARCINOMA, Dose [Carcinogen]: 20 MG/KG INJECTION GIVEN TWICE 1 WK APART, Promoter: NONE USED)	tumour outcome (control, treated, inhibition, significance) (Carcinogen: N-NITROSOBIS(2-OXOPROPYL)AMINE, 60599-38-4, Dose [Inhibitor]: 0.25 MMOL/KG OF DIET FOR 364 D STARTING 2 WK AFTER LAST CARCINOGEN DOSE (STUDY DURATION: 55 WK), Route [Inhibitor]: ORAL, Species: HAMSTER, Strain/Sex: SYRIAN/FEMALE, Target Tissue: Type of Lesion: PANCREAS: CARCINOMA, Dose [Carcinogen]: 20 MG/KG INJECTION GIVEN TWICE 1 WK APART, Promoter: NONE USED)	tumour outcome (control, treated, inhibition, significance) (Carcinogen: N-NITROSOBIS(2-OXOPROPYL)AMINE, 60599-38-4, Dose [Inhibitor]: 0.25 MMOL/KG OF DIET FOR 364 D STARTING 2 WK AFTER LAST CARCINOGEN DOSE (STUDY DURATION: 55 WK), Route [Inhibitor]: ORAL, Species: HAMSTER, Strain/Sex: SYRIAN/MALE, Target Tissue: Type of Lesion: LIVER: CARCINOMA, Dose [Carcinogen]: 20 MG/KG INJECTION GIVEN TWICE 1 WK APART, Promoter: NONE USED)	tumour outcome (control, treated, inhibition, significance) (Carcinogen: N-NITROSOBIS(2-OXOPROPYL)AMINE, 60599-38-4, Dose [Inhibitor]: 0.25 MMOL/KG OF DIET FOR 364 D STARTING 2 WK AFTER LAST CARCINOGEN DOSE (STUDY DURATION: 55 WK), Route [Inhibitor]: ORAL, Species: HAMSTER, Strain/Sex: SYRIAN/MALE, Target Tissue: Type of Lesion: PANCREAS: CARCINOMA, Dose [Carcinogen]: 20 MG/KG INJECTION GIVEN TWICE 1 WK APART, Promoter: NONE USED)	tumour outcome (control, treated, inhibition, significance) (Carcinogen: N-NITROSOBIS(2-OXOPROPYL)AMINE, 60599-38-4, Dose [Inhibitor]: 0.5 MMOL/KG DIET FOR 357 D STARTING 2 WK AFTER LAST CARCINOGEN DOSE AND INTERRUPTED BY A 1 WK REST PERIOD OF VEHICLE ONL, Route [Inhibitor]: ORAL, Species: HAMSTER, Strain/Sex: SYRIAN/FEMALE, Target Tissue: Type of Lesion: LIVER: HEPATOCELLULAR CARCINOMA, Dose [Carcinogen]: 20 MG/KG INJECTION GIVEN TWICE 1 WK APART, Promoter: NONE USED)	tumour outcome (control, treated, inhibition, significance) (Carcinogen: N-NITROSOBIS(2-OXOPROPYL)AMINE, 60599-38-4, Dose [Inhibitor]: 0.5 MMOL/KG DIET FOR 357 D STARTING 2 WK AFTER LAST CARCINOGEN DOSE AND INTERRUPTED BY A 1 WK REST PERIOD OF VEHICLE ONL, Route [Inhibitor]: ORAL, Species: HAMSTER, Strain/Sex: SYRIAN/FEMALE, Target Tissue: Type of Lesion: PANCREAS: CARCINOMA, Dose [Carcinogen]: 20 MG/KG INJECTION GIVEN TWICE 1 WK APART, Promoter: NONE USED)	tumour outcome (control, treated, inhibition, significance) (Carcinogen: N-NITROSOBIS(2-OXOPROPYL)AMINE, 60599-38-4, Dose [Inhibitor]: 0.5 MMOL/KG DIET FOR 357 D STARTING 2 WK AFTER LAST CARCINOGEN DOSE AND INTERRUPTED BY A 1 WK REST PERIOD OF VEHICLE ONL, Route [Inhibitor]: ORAL, Species: HAMSTER, Strain/Sex: SYRIAN/MALE, Target Tissue: Type of Lesion: LIVER: HEPATOCELLULAR CARCINOMA, Dose [Carcinogen]: 20 MG/KG INJECTION GIVEN TWICE 1 WK APART, Promoter: NONE USED)	tumour outcome (control, treated, inhibition, significance) (Carcinogen: N-NITROSOBIS(2-OXOPROPYL)AMINE, 60599-38-4, Dose [Inhibitor]: 0.5 MMOL/KG DIET FOR 357 D STARTING 2 WK AFTER LAST CARCINOGEN DOSE AND INTERRUPTED BY A 1 WK REST PERIOD OF VEHICLE ONL, Route [Inhibitor]: ORAL, Species: HAMSTER, Strain/Sex: SYRIAN/MALE, Target Tissue: Type of Lesion: PANCREAS: CARCINOMA, Dose [Carcinogen]: 20 MG/KG INJECTION GIVEN TWICE 1 WK APART, Promoter: NONE USED)
CCOC(=O)/C=C(C)/C=C/C=C(C)/C=C/c1c(C)cc(OC)c(C)c1C	90%, 38%, 58%, not calculated	7/137 (5%), 0/44 (0%), 100%, not calculated	8/137 (6%), 6/44 (14%), -133%, not calculated	22/137 (16%), 5/44 (11%), 31%, not calculated	60/137 (44%), 26/44 (59%), -34%, not calculated	–	–	–	–	–	–	–	–	–	–
CC1=C(/C=C/C(C)=C/C=C/C(C)=C/C(=O)NCC(C)O)C(C)(C)CCC1 (stereo not given)	–	–	–	–	–	31/55 (56%), 20/55 (36%), 36%, p<0.05	31/55 (56%), 20/55 (36%), 36%, p<0.05	5%, 19%, -280%, not calculated	38%, 15%, 61%, not calculated	7%, 32%, -357%, not calculated	34%, 24%, 29%, not calculated	5%, 12%, -140%, not calculated	38%, 25%, 34%, not calculated	7%, 12%, -71%, not calculated	34%, 29%, 15%, not calculated
